From publication PMC8350397, “GSK137, a potent small-molecule BCL6 inhibitor with in vivo activity, suppresses antibody responses in mice” (The Journal of Biological Chemistry, 2021)
“Also recorded” adds a separate entry of the source.

Columns and labels:
[1] = test system: BCL6 target genes in Farage cells; assay: Semiquantitative real-time PCR of ten BCL6 target genes; format: cell-based; conditions: 72-h treatment
Experimental: Farage cells were plated at a density of 3000 cells/100 µl in 96-well plates, incubated overnight at 37 °C then treated with a 10-point, 1:3-fold serial dilution of compound at a top concentration of 20 µM for GSK137 or 10 µM BI3802. Cells were returned to the incubator for 3 days prior to harvesting for RNA isolation. RNA was isolated using the TurboCapture 96 Kit (Qiagen, Hilden, Germany; # 72251), cDNA generated using the High Capacity cDNA Reverse Transcription kit (ABI, Foster City, CA, USA; #4374966) both following the manufacturer’s instructions. qPCR was performed on a ViiA7 real-time PCR machine (Life Technologies, Carlsbad, CA, USA) using the Fast TaqMan ΔΔCt method. Quadruplicate readings were measured for each biological replicate sample. Individual TaqMan assays are listed (Table S4). Expression data were analyzed using the Comparative Ct^(2–ΔΔ^Ct) method (42) The Ct values of the treated samples are compared to vehicle treated samples and normalized to GAPDH. Changes are presented as an average RQ (termed “relative expression”). RQ values between 0 and 1 correspond to a downregulation of gene expression, RQ values greater than 1 correspond to upregulation.

ULA cells [2] = assay: Cell cycle analysis, ULA; format: cell-based; conditions: GSK137 0.1-10 μM; for fraction of cells in G1: BI3802 1 μM, 2 or 6 days; for dead or dying cells: day 6, BI3802 1 μM
Experimental: (§1) Farage, ULA, KARPAS-422, and VAL cells were seeded into 6-well tissue culture dishes in a total volume of 6 mL at densities of 6.25 x10^3, 7.81 x10^3, 6.25 x10^3, and 1.56 x10^3 cells/mL, respectively and incubated overnight at 37 °C and 5% CO2. Cells were then treated with 0.1 µM, 1 µM, or 10 µM GSK137 or 1 µM BI3802 for 2 or 6 days at 37 °C and 5% CO2. Cell cycle analysis was performed using the Click-iT EdU Alexa Fluor 647 Flow Cytometry Assay Kit (Thermo Fisher Scientific, Waltham, MA, USA) following the manufacturer’s instructions, with volumes adjusted for a […] U-bottom plate, and with an approximately 1 hour treatment with 10 μM EdU. After EdU treatment, approximately 2x10^5 cells per well were transferred into a 96-well, non-tissue culture treated U-bottom plate and stained with 6.7µg/ml final FxCycle Violet Stain for 30 minutes incubation at room temperature. Cells were then analyzed on a flow cytometer (BD FACS Canto […] or LSR FortessaTM X-20 (Becton Dickinson, Franklin Lakes, NJ, USA)) with compensation each day using one cell line and data analyzed using FlowJo software (version 10.3). Percentages of cells in each phase of the cell cycle were then averaged across technical replicates.

[3] = test system: Farage, Karpas422 and VAL cells; assay: Cell cycle analysis, Farage, Karpas422, VAL; format: cell-based; conditions: 2 or 6 days
Experimental: as §1

ULA cells [4] = assay: Viability and cumulative cell number analysis, ULA; format: cell-based; conditions: 14 days; for cell viability: GSK137 0.1-10 μM, BI3802 0.1 and 1 μM
Experimental: Farage cells were cultured in RPMI1640 (1×) + 20% heat-inactivated fetal bovine serum (FBS), ULA in Iscove's modified Dulbecco's medium + 20% FBS, whereas Karpas422 and VAL were cultured in RPMI1640 + 20% heat-inactivated FBS, all with the addition of 1% Glutamax and 1% sodium pyruvate.
Farage, ULA, Karpas422, and VAL cells were seeded into T25 tissue culture flasks in a total volume of 7 mL per flask at densities of 5 x10^4, 7 x10^4, 5 x10^4, and 4 x10^4 cells/mL, respectively and incubated overnight at 37 °C and 5% CO2. Cells were then treated with a 3-point titration of GSK137 (0.1 µM, 1 µM, and 10 µM) throughout a 14-day time course. Treatments with multiple concentrations of BI3802 were also included for comparison (Farage and Karpas422 cells were treated with 0.01 µM, 0.1 µM, and 1 µM BI3802; ULA cells were treated with 0.1 µM and 1 µM BI3802; VAL cells were treated with 0.1 µM, 1 µM, and 10 µM BI3802). Viability (trypan blue exlcusion) and cumulative cell number were measured on a Vi-CELL XR 2.03 (Beckman Coulter, Brea, CA, USA) on day of seeding and on days 3, 6, 10, and 14.

[5] = biological target: T1, BCL6 in Farage DLBCL cells (Homo sapiens, UniProt P41182); assay: Western blot for BCL6 protein degradation; format: cell-based; conditions: 1 μM for 24 h
T1 construct: endogenous in cells; host or cells: Farage DLBCL cells
Experimental: Cell pellets were lysed in RIPA buffer containing protease/phosphatase inhibitor cocktail and benzonase, protein concentration determined and samples prepared in reducing conditions and 20 µg of protein loaded per lane. Proteins were then transferred onto a nitrocellulose membrane and probed with rabbit BCL6 antibody (Abcam, Cambridge, UK; ab33901) and mouse GAPDH antibody (Abcam; ab9484) at 1:2000 dilution overnight at 4°C. Blots were probed for 1 hour at room temperature with secondary antibodies (goat anti-rabbit LI-COR, 926-32211 and goat anti-mouse LI-COR, 926-68070) at 1:10,000 dilution). Images were obtained on a LI-COR Odyssey CLx Infrared Imaging System using Image Studio software (Version 5.2).

splenic germinal centers = assay: Spleen immunohistochemistry of germinal centers; format: in vivo, mouse
Experimental: Immunohistochemistry of GCs in spleens was obtained from a pilot experiment to test immunization conditions carried out at the University of Leicester using groups of C57BL/6J mice. One group of mice was immunized with TNP-KLH (100 μg) followed by treatment with GSK137 15 mg/kg by oral gavage three times per day from day -1 to day +12 (n = 3), whereas the other was treated with vehicle by oral gavage three times per day from day -1 to day +12 following immunization (n = 6). Formalin-fixed paraffin-embedded sections of mouse spleen were stained with antimouse B220/CD45R (BD Biosciences; catalog no. 550286), […] (Abcam; ab32064), and anti-Ki67 (Abcam; ab15580) antibodies using Opal Multiplex IHC detection kit (NEL810001KT; Akoya Biosciences). The sections were counterstained with 4',6-diamidino-2-phenylindole for 5 min and mounted with ProLong Diamond Antifade mountant (Invitrogen; P36970). Images were obtained using Vectra Polaris multicolor fluorescence scanner (Akoya Biosciences). Quantification was carried out by inForm image analysis software (Akoya Biosciences). Normality tests were carried out for the B220^+Ki67^+ and […]^+ data. Both datasets were normally distributed, and accordingly, statistical significance was determined by unpaired t test.

Compound | expression changes in a panel of 10 BCL6 target genes [1] | fraction of cells in G1 (ULA cells [2]) | dead or dying cells (ULA cells [2]) | fraction of cells in G1 [3] | cumulative cell number (ULA cells [4]) | cell viability (ULA cells [4]) | degradation of intracellular BCL6 protein [5] | fraction of B220+ cells expressing clPARP within splenic B-cell follicles vs control (splenic germinal centers; 15 mg/kg) | number of GCs per follicle (mean ± SD) (splenic germinal centers; 15 mg/kg orally TID, C57BL/6J mice, vehicle 0.5 ± 0.11, p = 0.04) | numbers of B220+Ki-67+ cells within each GC vs vehicle (splenic germinal centers; 15 mg/kg, unpaired t test, p = 0.01)
CNC(=O)COc1cc2cc(Nc3nc(N4C[C@H](C)C[C@H](C)C4)ncc3Cl)ccc2n(C)c1=O [BI3802, reference compound] | dose-dependent changes to six of the ten genes | increased fraction of cells in G1 at day 2 | ~40% | only minor increase in the fraction of cells in G1 | most sensitive | only appreciably reduced viability in ULA at the highest concentration used | degraded BCL6 | – | – | –
Cc1ncccc1[C@H]1C[C@@H](c2cccc3nc(N)ccc23)Nc2c(F)cnn21 [GSK137, 5-((5S,7R)-3-Fluoro-7-(2-methylpyridin-3-yl)-4,5,6,7-tetrahydropyrazolo[1,5-a]pyrimidin-5-yl)quinolin-2-amine] | clear increase only in SOCS2 with some increase in CD69 | modest dose and time-dependent G1 cell cycle arrest | no increase in dead or dying cells | only minor increase in the fraction of cells in G1 | – | no major change in cell viability; also recorded: only minimal reduction in viability | did not show this activity | no significant difference | 0.27 ± 0.06 | significant reductions
